Test system: 935938-334-R-J1-PDC complex spheroid viability
Test: Anticancer human tumor 935938-334-R-J1-PDC patient-derived small intestine adenocarcinoma cell line growth inhibition [POLQ]
Conditions: for IC50: curve of first compound; for viability, T/C: stronger effect = lower value
Procedure: Multicellular complex tumor spheroid response to Polymerase (POL) inhibitors (novobiocin, ART-558, RP6685) in combination with a variety of drugs and investigational agents in selected tumor cell lines
The POL inhibitors (novobiocin, ART-558, and RP6685) were evaluated both individually and in combination with standard of care and investigational anticancer small molecules within a complex spheroid model of solid tumors. . Complex spheroids include a stromal component modeled by human endothelial cells (HUVEC) and fibroblasts modeled by human mesenchymal stem cells (MSCs). The concentration ranges selected for each drug and investigational agent were based upon clinically achievable concentrations if the clinical Cmax of the agent was known.
Compounds. The drugs and investigational agents: novobiocin (NSC847541), ART-558 (NSC835418), RP-6685 (NSC848927), peposertib (NSC802822), ceralasertib (NSC780249), elimusertib (NSC800525), camonsertib (NSC841442), AZD-1390 (NSC803789), olaparib (NSC753686), talazoparib (NSC767125), rucaparib (NSC756644), sotorasib (NSC818433), MRTX-1133 (NSC836407), SN-38 (NSC673596), topotecan (NSC609699), epotoside (NSC141540), doxorubicin (NSC123127), gemcitabine (NSC613327), 5-fluorouracil (NSC19893), paclitaxel (NSC125973), vemurafenib (NSC761431), MSA-2 (NSC828583), SN-011 (NSC837082), adavosertib (NSC754352), prexasertib (NSC758257), carboplatin (NSC241240) and oxaliplatin (NSC266046), were obtained from the National Cancer Institute (NCI) Developmental Therapeutics Program Chemical Repository (21). The FDA-approved anticancer drug set is available from the Developmental Therapeutics Program at https://dtp.cancer.gov/organization/dscb/obtaining/. […] The stock solutions were prepared in dimethyl sulfoxide (DMSO, Sigma-Aldrich, St. Louis, MO, cat. D2650), except for the platinum compounds which were prepared in saline (Quality Biological, Gaithersburg, MD, cat. 114-055-101), at 800-fold the tested concentration and stored at -70 degrees C prior to their use. All drugs and investigational agents were tested over a range starting from a high concentration at or near the clinical Cmax and decreasing in half-log increments. If the clinical Cmax for an agent had not been determined, the highest concentration tested was 10 microM, except for SN-38, which was tested at a high concentration of 1 microM.
Cell Culture. All cells were maintained in an incubator at 37 degrees C and 5% CO2 with 95% humidity. The PDC lines were cultured according to standard operating procedures established by the NCI PDMR (https://pdmr.cancer.gov). Table 3 of the manuscript, lists the cell lines along with the number of the three cell types plated to form the mct-spheroids and media for tumor cell growth. After thawing, all PDC lines, except 997537-175-T-J1-PDC and 415267-285-R-J2-PDC, were cultured in Matrigel-coated flasks prepared with a working solution of 1X Ham's F-12 nutrient mix, without supplementation (Thermo Fisher Scientific, cat. 11765054), 100 U/mL penicillin-streptomycin (Thermo Fisher Scientific, cat. 15140122), and 2.5% Matrigel (Corning Inc., Corning, NY, cat. 354248) for the first three passages. The two PDC lines 997537-175-T-J1-PDC and 415267-285-R-J2-PDC were cultured on uncoated flasks. The 857933-349-R-J2-PDC line was cultured in 6C/Colon 1B media containing advanced DMEM/F-12 (Thermo Fisher Scientific, cat. 12634028), 10 mM HEPES (Thermo Fisher Scientific, cat. 15630080), 1X GlutaMAX supplement (Thermo Fisher Scientific, cat. 35050061), 0.1 mg/mL primocin (InvivoGen, San Diego, CA, cat. ant-pm-2), 10% defined fetal bovine serum, heat inactivated (HyClone Laboratories Inc., Logan, UT, cat. SH30070.03HI), 50% L-WRN conditioned media (ATCC, cat. CRL-3276), 1.25 mM N-Acetyl-L-cysteine (Sigma-Aldrich, cat. A9165), 10 mM nicotinamide (Sigma-Aldrich, cat. N0636), 1X B-27 supplement (Thermo Fisher Scientific, cat. 17504044), 1X N-2 supplement (Thermo Fisher Scientific, cat. […]

[1] = second compound 0.0316 µM, first compound 0.0316 µM
[2] = second compound 0.0316 µM, first compound 0.1 µM
[3] = second compound 0.0316 µM, first compound 0.316 µM
[4] = second compound 0.0316 µM, first compound 1 µM
[5] = second compound 0.1 µM, first compound 0.0316 µM
[6] = second compound 0.1 µM, first compound 0.1 µM
[7] = second compound 0.1 µM, first compound 0.316 µM
[8] = second compound 0.1 µM, first compound 1 µM
[9] = second compound 0.316 µM, first compound 0.0316 µM
[10] = second compound 0.316 µM, first compound 0.1 µM
[11] = second compound 0.316 µM, first compound 0.316 µM
[12] = second compound 0.316 µM, first compound 1 µM
[13] = second compound 1 µM, first compound 0.0316 µM
[14] = second compound 1 µM, first compound 0.1 µM
[15] = second compound 1 µM, first compound 0.316 µM
[16] = second compound 1 µM, first compound 1 µM
[17] = second compound 3.16 µM, first compound 0.0316 µM
[18] = second compound 3.16 µM, first compound 0.1 µM
[19] = second compound 3.16 µM, first compound 0.316 µM
[20] = second compound 3.16 µM, first compound 1 µM
[21] = second compound 10 µM, first compound 0.0316 µM
[22] = second compound 10 µM, first compound 0.1 µM
[23] = second compound 10 µM, first compound 0.316 µM
[24] = second compound 10 µM, first compound 1 µM
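Further: spheroids exposed to drugs for seven days before viability read.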
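Wherever viability, T/C is given: 100% = DMSO vehicle control wells.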

## COc1ccc([C@@H](O)c2cc(-c3ncnc4cc(N5CCOCC5)ccc34)c(F)cc2Cl)nn1 + Cc1cccc(N(C)C(=O)C2C(O)CCN2c2nc(C)cc(C(F)(F)F)c2C#N)c1
Second compound 0.0316 µM
  IC50: 6.02 µM
Second compound 0.1 µM
  IC50: 4.28 µM
Second compound 0.316 µM
  IC50: 3.2 µM
Second compound 1 µM
  IC50: 6.41 µM
Second compound 3.16 µM
  IC50: 3.7 µM
Second compound 10 µM
  IC50: 2.58 µM
[1]
  viability, T/C: 79.3%
[2]
  viability, T/C: 117%
[3]
  viability, T/C: 76.8%
[4]
  viability, T/C: 79.1%
Second compound 0.0316 µM, first compound 3.16 µM
  viability, T/C: 63.8%
Second compound 0.0316 µM, first compound 10 µM
  viability, T/C: 39.9%
[5]
  viability, T/C: 75.3%
[6]
  viability, T/C: 98.1%
[7]
  viability, T/C: 69.6%
[8]
  viability, T/C: 60.3%
Second compound 0.1 µM, first compound 3.16 µM
  viability, T/C: 61.4%
Second compound 0.1 µM, first compound 10 µM
  viability, T/C: 34.5%
[9]
  viability, T/C: 116%
[10]
  viability, T/C: 98.9%
[11]
  viability, T/C: 97.6%
[12]
  viability, T/C: 75.8%
Second compound 0.316 µM, first compound 3.16 µM
  viability, T/C: 48.2%
Second compound 0.316 µM, first compound 10 µM
  viability, T/C: 30.3%
[13]
  viability, T/C: 90.6%
[14]
  viability, T/C: 80.2%
[15]
  viability, T/C: 83.4%
[16]
  viability, T/C: 97.6%
Second compound 1 µM, first compound 3.16 µM
  viability, T/C: 72.7%
Second compound 1 µM, first compound 10 µM
  viability, T/C: 35.8%
[17]
  viability, T/C: 101%
[18]
  viability, T/C: 85%
[19]
  viability, T/C: 81.8%
[20]
  viability, T/C: 67.2%
Second compound 3.16 µM, first compound 3.16 µM
  viability, T/C: 55%
Second compound 3.16 µM, first compound 10 µM
  viability, T/C: 33.1%
[21]
  viability, T/C: 103%
[22]
  viability, T/C: 80.8%
[23]
  viability, T/C: 85.6%
[24]
  viability, T/C: 59.9%
Second compound 10 µM, first compound 3.16 µM
  viability, T/C: 48.9%
Second compound 10 µM, first compound 10 µM
  viability, T/C: 28.4%

## COc1cccc(OCCCN)c1-c1cc(Nc2cnc(C#N)cn2)n[nH]1 + Cc1cccc(N(C)C(=O)C2C(O)CCN2c2nc(C)cc(C(F)(F)F)c2C#N)c1
Second compound 0.0316 µM
  IC50: 0.0559 µM
Second compound 0.1 µM
  IC50: 0.0509 µM
Second compound 0.316 µM
  IC50: 0.0409 µM
Second compound 1 µM
  IC50: 0.0437 µM
Second compound 3.16 µM
  IC50: 0.04 µM
Second compound 10 µM
  IC50: 0.0385 µM
Second compound 0.0316 µM, first compound 0.00316 µM
  viability, T/C: 118%
Second compound 0.0316 µM, first compound 0.01 µM
  viability, T/C: 94.9%
[1]
  viability, T/C: 65.2%
[2]
  viability, T/C: 36.8%
[3]
  viability, T/C: 12.2%
[4]
  viability, T/C: 8.59%
Second compound 0.1 µM, first compound 0.00316 µM
  viability, T/C: 101%
Second compound 0.1 µM, first compound 0.01 µM
  viability, T/C: 75.2%
[5]
  viability, T/C: 69.6%
[6]
  viability, T/C: 31%
[7]
  viability, T/C: 9.36%
[8]
  viability, T/C: 10.3%
Second compound 0.316 µM, first compound 0.00316 µM
  viability, T/C: 96%
Second compound 0.316 µM, first compound 0.01 µM
  viability, T/C: 95.2%
[9]
  viability, T/C: 48.1%
[10]
  viability, T/C: 35.3%
[11]
  viability, T/C: 10.1%
[12]
  viability, T/C: 10.6%
Second compound 1 µM, first compound 0.00316 µM
  viability, T/C: 106%
Second compound 1 µM, first compound 0.01 µM
  viability, T/C: 86%
[13]
  viability, T/C: 60.7%
[14]
  viability, T/C: 28.5%
[15]
  viability, T/C: 9.11%
[16]
  viability, T/C: 9.21%
Second compound 3.16 µM, first compound 0.00316 µM
  viability, T/C: 138%
Second compound 3.16 µM, first compound 0.01 µM
  viability, T/C: 90.6%
[17]
  viability, T/C: 69.5%
[18]
  viability, T/C: 15.7%
[19]
  viability, T/C: 8.96%
[20]
  viability, T/C: 11.1%
Second compound 10 µM, first compound 0.00316 µM
  viability, T/C: 96.5%
Second compound 10 µM, first compound 0.01 µM
  viability, T/C: 94.8%
[21]
  viability, T/C: 57.9%
[22]
  viability, T/C: 11.6%
[23]
  viability, T/C: 11.9%
[24]
  viability, T/C: 9.17%
